We go through 21 compounds from patent US9765063B2, “Amido compounds as RORγt modulators and uses thereof” (New York University, priority 2011, dated 2017).

The IC50 is the concentration at which inhibition is half-maximal. Usually half-life stands for how long it takes for the measured level to halve. Low readings indicate fast loss, high ones slow loss.

The target of one series is T1, RORγt (Mus musculus, UniProt P51450).
T1 construct: expressed in transfected cells; the other entry of the earlier key: GAL4 (P04386, Regulatory protein GAL4)
As to the kind of experiment: RORγt S2 cell reporter assay (Gal4-RORγt fusion, UAS-luciferase). Type of series: cell-based. The following applies: for IC50: Drosophila S2 cells, luciferase reporter, read-out: IC50; for Emax: % of the maximal response of control inhibitor (Digoxin), set at 100%, read-out: Efficacy (%). From the text:
Methods: The Drosophila S2 cell line was originally purchased from Invitrogen and was maintained in Schneider's medium supplemented with 10% heat-inactivated bovine fetal calf serum and antibiotics (Invitrogen). […] The resulting chimeric gene was subcloned into the copper inducible pMT/V5-His A vector (available from Invitrogen).
Renilla luciferase construct under the polIII promoter was obtained from Dr. Dasgupta's laboratory (NYU medical center). In order to generate stable cell lines, cells were co-transfected with pMT-G4DBD-RORγt, pMT-G4DBD-RORα, pMT-G4DBD-DHR3, or pMT-G4DBDVP16 and pHygro plasmids (Invitrogen) and screened for resistant colonies in the presence of hygromycin (0.3 mg/mL). […] Using similar methods, stable clones with genomic integration of the luciferase reporters and other reporters were generated such as pMT-RORα_luc, pMT-DHR3_luc, or pMT-VP16_luc.
Methods: 600 G4DBD-RORγ/γt-luc reporter (#25) or G4DBD-VP16-luc reporter cells were distributed into each well of 1,536-well white bottom plates in 4 μl S2 cell culture volume containing hygromicin (300 μg/ml) and puromycin (2 μg/ml). […] After one-hour incubation, 1 of culture medium solution containing copper sulfate (to final 0.7 mM) and 10 μM RORγ/γt antagonists were added to each well. After 20-hour incubation at ambient temperature, 1.5 μl firefly luciferase detection mix was added and the luciferase activities were measured in 10 min. ViewLux luminometers were used for measuring luciferase signal.
A cell-based reporter assay was used to detect RORγt-mediated activity. This assay, called RORγt employed Drosophila Schneider cells that were stably transfected with two vectors: a gene expressing a fusion of the Gal4 DNA binding domain and RORγt transactivation domain under the control of the metallothionine promoter and a Photinus luciferase reporter regulated by the Gal4 binding site enhancer, UAS. […] Cells (600/well) were dispensed into white solid 1536-well plates (Greiner) using a solenoid-based dispenser. Following transfer of […] compound or DMSO vehicle by a pin tool, the plates were incubated 1 hr at ambient temperature, and 1 uL/well copper sulfate (700 uM final concentration) was added. The plates were centrifuged 15 s at 1000 RPM and incubated 20 hr at ambient temperature. After addition of 1.5 uL Photinus luciferase detection reagent, the plates were incubated 10 min at ambient temperature and then read by a ViewLux (Perkin Elmer) to detect luminescence. […] Efficacy is expressed as % of the maximal response of control inhibitor (Digoxin), set at 100%.
For orientation: A reporter such as luciferase makes a cellular process visible.

Series [1] can be described thus: Half-life in Human Liver Microsomes (HLM). Type of series: in vitro ADME. The following applies: for % Remaining @ 60 min / half-life at 1 μM / microsomal CLint at 1 μM: 1 μM compound, 0.78 mg/mL HLM, 37° C.; for half-life at 1 μM / microsomal CLint at 1 μM: human, human liver microsomes, pH 7.4; for half-life at 1 μM: Half-life=ln 2/k; for microsomal CLint at 1 μM: read-out: CLint (uM/Min/mg proteins). The procedure:
Test compounds (1 μM) are incubated with 3.3 mM MgCl2 and 0.78 mg/mL HLM (HL101) in 100 mM potassium phosphate buffer (pH 7.4) at 37° C. on the 96-deep well plate. The reaction mixture is split into two groups, a non-P450 and a P450 group. NADPH is only added to the reaction mixture of the P450 group. An aliquot of samples of the P450 group is collected at 0, 10, 30, and 60 min time points, where the 0 min time point indicated the lime at which NADPH is added into the reaction mixture of the P450 group. […] Collected aliquots are extracted with acetonitrile solution containing an internal standard. […] The compound concentration in supernatant is measured by LC/MS/MS system.
The half-life value is obtained by plotting the natural logarithm of the peak area ratio of compounds/internal standard versus time. The slope of the line of best fit through the points yields the rate of metabolism (k). This is converted to a half-life value using following equations: Half-life=ln 2/k
A general note: Microsomes from liver hold many membrane-bound enzymes, among them those of drug oxidation.

Read-outs that look alike come from different tables or passages of the source.

T1 sequence (P51450 with tags, fused parts or gaps): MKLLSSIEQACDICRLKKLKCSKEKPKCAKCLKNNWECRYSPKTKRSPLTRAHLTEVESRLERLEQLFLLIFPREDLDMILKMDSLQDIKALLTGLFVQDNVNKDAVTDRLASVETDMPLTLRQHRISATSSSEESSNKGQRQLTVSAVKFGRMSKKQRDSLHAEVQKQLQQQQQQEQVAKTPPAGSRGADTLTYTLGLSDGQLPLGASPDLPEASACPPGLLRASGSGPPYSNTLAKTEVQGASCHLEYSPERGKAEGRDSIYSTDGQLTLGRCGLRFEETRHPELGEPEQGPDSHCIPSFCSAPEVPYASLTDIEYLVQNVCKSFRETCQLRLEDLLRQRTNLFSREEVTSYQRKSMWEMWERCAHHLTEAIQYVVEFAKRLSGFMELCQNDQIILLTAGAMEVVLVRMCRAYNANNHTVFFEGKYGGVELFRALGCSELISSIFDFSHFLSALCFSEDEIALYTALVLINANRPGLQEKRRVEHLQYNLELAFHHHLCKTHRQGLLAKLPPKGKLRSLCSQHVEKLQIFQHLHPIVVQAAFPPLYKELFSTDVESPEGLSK

As to `COc1cc(O)c(C(CC(=O)N2CC(C)CC(C)C2)c2ccc(C(=O)NC3CC3)cc2)c(OC)c1` (stereo not drawn) [Compound 95], the IC50 on RORγt (Table 1) lay in the range of 1 to 10 µM.

As for `COc1cc(O)c(C(CC(=O)N2CC(C)CC(C)C2)c2ccc(C(N)=O)cc2)c(OC)c1` (stereo not drawn) [Compound 111], on RORγt (Table 1), the Emax turned out to be 96.7% and the IC50 lay in the range of 1 to 10 µM.

For the compound `COc1cc(O)c(C(CC(=O)N2CC(C)C[C@@H](C)C2)c2nc3ccccc3s2)c(OC)c1` (stereo in doubt) [Compound 205, 1-(3,5-Dimethylpiperidin-1-yl)-3-(4,6-dimethoxy-2-hydroxy-phenyl)-3-(benzothiazol-2-yl)propan-1-one], the concentration for half-maximal inhibition (IC50) on RORγt (Table 1A) was less than 1 µM.

On to `COc1cc(O)c(C(CC(=O)N2CC(C)CC(C)C2)c2csc3ccccc23)c(OC)c1` (stereo not drawn) [Compound 79], for which, on RORγt (Table 1), the Emax is -90.8% and the IC50 is 1 to 10 µM.

In the case of `CC1CC(C)CN(C(=O)CC(c2ccc3c(c2)OCO3)c2c(O)ccc3cccnc23)C1` (stereo not drawn) [Compound 146], at RORγt (Table 1), the IC50 lay within 1 to 10 µM.

As for `COc1cc(O)c(C(CC(=O)N2CC(C)CC(C)C2)c2cccc(S(C)(=O)=O)c2)c(OC)c1` (stereo not drawn) [Compound 83, 1-(3,5-Dimethylpiperidin-1-yl)-3-(2-hydroxy-4,6-dimethoxyphenyl)-3-(3-(methylsulfonyl)phenyl)propan-1-one], at RORγt (Table 1), the Emax was 93.8% and the concentration for half-maximal inhibition (IC50) lay within 1 to 10 µM.

Take `CC1CC(C)CN(C(=O)CC(c2ccc(-n3cncn3)cc2)c2ccc3c(c2)OCO3)C1` (stereo not drawn) [Compound 141, 3-(4-(1H-1,2,4-Triazol-1-yl)phenyl)-3-(benzo[d][1,3]dioxol-5-yl)-1-(3,5-dimethylpiperidin-1-yl)propan-1-one]: in series [1], the “% Remaining @ 60 min” value was 9.02%, the half-life at 1 μM is 12.9 min and the microsomal CLint at 1 μM came to 108 µL/min/mg. The “stability compared with compounds 150 and 157” value in series [1] (HLM, Table 3 data) is “better or improved stability over the compounds with IDs 150 and 157”.

Consider `COc1cc(OC)c(C(CC(=O)N2C[C@H](C)C[C@H](C)C2)c2ccc(C(=O)O)cc2)c(OC)c1` (stereo partly drawn) [Compound 201, 4-(3-(3,5-cis-Dimethylpiperidin-1-yl)-3-oxo-1-(2,4,6-trimethoxyphenyl)-propyl)benzoic acid], for which, on RORγt (Table 1), the Emax stood at 87% and the IC50 was less than 1 µM.

For `COc1cc(O)c(C(CC(=O)N2C[C@H](C)C[C@H](C)C2)c2ccc(C(=O)O)cc2)c(OC)c1` (stereo partly drawn) [Compound 202, 4-(3-(3,5-cis-Dimethylpiperidin-1-yl)-1-(2-hydroxy-4,6-dimethoxyphenyl)-3-oxopropyl)benzoic acid], the IC50 on RORγt (Table 1A) was less than 1 µM.

Turning to `COc1cc(O)c(C(CC(=O)N2CC(C)CC(C)C2)c2ccc(S(=O)(=O)N(C)C)cc2)c(OC)c1` (stereo not drawn) [Compound 84], on RORγt (Table 1), the Emax was 103% and the IC50 fell in the range of 11 to 50 µM.

Regarding `COc1cc(O)c(C(CC(=O)N2CC(C)CC(C)C2)c2ccc(C(C)=O)cc2)c(OC)c1` (stereo not drawn) [Compound 100, 3-(4-Acetylphenyl)-1-(3,5-dimethylpiperidin-1-yl)-3-(2-hydroxy-4,6-dimethoxyphenyl)propan-1-one], at RORγt (Table 1), the Emax was determined as 93.6% and the 50% inhibitory concentration (IC50) is less than 1 µM.

For `COc1cc(O)c(C(CC(=O)N2CC(C)CC(C)C2)c2cccnc2)c(OC)c1` (stereo not drawn) [Compound 106, 1-(3,5-Dimethylpiperidin-1-yl)-3-(2-hydroxy-4,6-dimethoxyphenyl)-3-(pyridin-3-yl)propan-1-one], at RORγt (Table 1), the Emax was determined as 96.9% and the half-maximal inhibitory concentration (IC50) was in the range of 1 to 10 µM.

`COc1cc(O)c(C(CC(=O)N2C[C@H](C)C[C@H](C)C2)c2c[nH]c(C)n2)c(OC)c1` (stereo partly drawn) [Compound 203]: the 50% inhibitory concentration (IC50) on RORγt (Table 1A) is 1 to 10 µM.

Regarding `COc1cc(O)c(C(CC(=O)N2CC(C)CC(C)C2)c2ccncc2)c(OC)c1` (stereo not drawn) [Compound 108, 1-(3,5-Dimethylpiperidin-1-yl)-3-(2-hydroxy-4,6-dimethoxyphenyl)-3-(pyridin-4-yl)propan-1-one], at RORγt (Table 1), the Emax was 119% and the IC50 was in the range of 11 to 50 µM.

Turning to `COc1cc(OC)c(C(c2ccccc2)C(C)(C)C(=O)N2CC(C)OC(C)C2)c(OC)c1` (stereo not drawn) [Compound 150, reference compound], in series [1], the “% Remaining @ 60 min” value came out at 6.79%, the half-life at 1 μM came out at 8 min and the microsomal CLint at 1 μM worked out at 173 µL/min/mg.

Consider `COc1cc(O)c(C(CC(=O)N2CCCC(C)C2)c2cccs2)c(OC)c1` (stereo not drawn) [Compound 70], for which, at RORγt (Table 1), the Emax came out at 95% and the IC50 fell in the range of 1 to 10 µM.

As for `COc1ccc2ccccc2c1C(c1ccc(F)cc1)C(C)(C)C(=O)N1CC(C)CC(C)C1` (stereo not drawn) [Compound 157, reference compound], in series [1], the “% Remaining @ 60 min” value was 6.78%, the half-life at 1 μM stood at 6.9 min and the microsomal CLint at 1 μM amounted to 201 µL/min/mg.

As for `COc1cc(O)c(C(CC(=O)N2C[C@H](C)C[C@H](C)C2)c2ccc(OC)nc2)c(OC)c1` (stereo partly drawn) [Compound 206, 1-(3,5-Dimethylpiperidin-1-yl)-3-(4,6-dimethoxy-2-hydroxy-phenyl)-3-(2-methoxypyrid-5-yl)propan-1-one], the IC50 on RORγt (Table 1A) was less than 1 µM.

As to `COc1cc(O)c(C(CC(=O)N2CC(C)CC(C)C2)c2cccs2)c(OC)c1` (stereo not drawn) [Compound 107, 1-(3,5-Dimethylpiperidin-1-yl)-3-(2-hydroxy-4,6-dimethoxyphenyl)-3-(thiophen-2-yl)propan-1-one], at RORγt (Table 1), the Emax came out at 94.9% and the IC50 lay within 1 to 10 µM.

For `COc1cc(O)c(C(CC(=O)N2C[C@H](C)C[C@H](C)C2)c2cnccn2)c(OC)c1` (stereo partly drawn) [Compound 204, 1-(3,5-Dimethylpiperidin-1-yl)-3-(4,6-dimethoxy-2-hydroxy-phenyl)-3-(pyrazin-2-yl)propan-1-one], the IC50 on RORγt (Table 1A) was in the range of 1 to 10 µM.

As to `COc1c(C(CC(=O)N2CC(C)CC(C)C2)c2ccc3c(c2)OCO3)c(O)cc2occc12` (stereo not drawn) [Compound 139], at RORγt (Table 1), the Emax came out at 94.5% and the half-maximal inhibitory concentration (IC50) lay within 1 to 10 µM.
